For 21 compounds, activity results are on record in patent US8518980B2, “Treatment of Duchenne muscular dystrophy” (Summit Corporation PLC, priority 2006, dated 2013).

For the assay, the system named is Utrophin A promoter linked to a luciferase reporter gene (H2K/mdx/Utro A reporter cell line). Description: Luciferase reporter assay (murine H2K cells). Conditions: Mus musculus, H2K mdx.
Regarding `Clc1ccc(OCc2nc3ccccc3[nH]2)cc1` [Example 495, 2-((4-chlorophenoxy)methyl)-1H-benzo[d]imidazole], the activity at 10 µM is under 200%. With `O=C(Nc1nc2ccccc2s1)c1ccccc1Br` [Example 616, N-(benzo[d]thiazol-2-yl)-2-bromobenzamide] the figure was over 401%; with `Nc1ccc(-c2nc3ccccc3o2)c(O)c1` [Example 484, 5-amino-2-(benzo[d]oxazol-2-yl)phenol], 201 to 300%; with `O=[N+]([O-])c1ccc(Cl)c(-c2nc3ccccc3s2)c1` [Example 524, 2-(2-chloro-5-nitrophenyl)benzo[d]thiazole], under 200%. With `Nc1ccc2oc(-c3ccc(Cl)c(Cl)c3)nc2c1` [Example 480, 2-(3,4-dichlorophenyl)benzo[d]oxazol-5-amine] the figure was 201 to 300%; with `O=C(Cc1ccccc1)Nc1ccc(-c2nc3ccccc3[nH]2)cc1` [Example 501, N-(4-(1H-benzo[d]imidazol-2-yl)phenyl)-2-phenylacetamide], under 200%.

As to `Cc1ccc2nc(-c3ccc(NC(=O)c4cccs4)cc3)oc2c1` [Example 672, N-(4-(6-methylbenzo[d]oxazol-2-yl)phenyl)thiophene-2-carboxamide], the activity at 10 µM was in the range of 201 to 300%. For the compound `Cc1ccc2nc(-c3ccc(N)cc3)oc2c1` [Example 506, 4-(6-methylbenzo[d]oxazol-2-yl)aniline], the activity at 10 µM is under 200%. With `Cc1cc(C)cc(-c2nc3cc(N)ccc3o2)c1` [Example 482, 2-(3,5-dimethylphenyl)benzo[d]oxazol-5-amine] the figure was under 200%; with `c1ccc(-c2nnc(SCc3nc4ccccc4[nH]3)o2)cc1` [Example 530, 2-((1H-benzo[d]imidazol-2-yl)methylthio)-5-phenyl-1,3,4-oxadiazole], under 200%. Then `Nc1ccc2oc(-c3ccc(O)cc3)nc2c1` [Example 496, 4-(5-aminobenzo[d]oxazol-2-yl)phenol], with 201 to 300%. For `Cc1cc(-c2nc3ccccc3o2)ccc1[N+](=O)[O-]` [Example 607, 2-(3-Methyl-4-nitrophenyl)benzo[d]oxazole], the activity at 10 µM is over 401%. Then `Cc1ccc(-c2nc3ccccc3[nH]2)cc1NC(=O)C(F)(F)F` [Example 568, N-(5-(1H-benzo[d]imidazol-2-yl)-2-methylphenyl)-2,2,2-trifluoroacetamide], with 301 to 400%; and `COc1ccc(-c2nc3cc([N+](=O)[O-])ccc3o2)cc1OC` [Example 537, 2-(3,4-dimethoxyphenyl)-5-nitrobenzo[d]oxazole], with under 200%; and `CCc1ccc2oc(-c3cccc(N)c3)nc2c1` [Example 502, 3-(5-ethylbenzo[d]oxazol-2-yl)aniline], with 201 to 300%. With `Cc1c(N)cccc1-c1nc2cc(Cl)ccc2o1` [Example 566, 3-(5-chlorobenzo[d]oxazol-2-yl)-2-methylaniline] the figure was under 200%; with `Cc1cc(C)c2oc(-c3ccc(Cl)c(N)c3)nc2c1` [Example 627, 2-chloro-5-(5,7-dimethylbenzo[d]oxazol-2-yl)aniline], over 401%; with `Nc1ccc2[nH]c(-c3ccc(Cl)cc3)nc2c1` [Example 560, 2-(4-chlorophenyl)-1H-benzo[d]imidazol-5-amine], 301 to 400%. Then `Cc1cc(-c2nc3cc(Cl)ccc3o2)ccc1[N+](=O)[O-]` [Example 539, 5-chloro-2-(3-methyl-4-nitrophenyl)benzo[d]oxazole], with under 200%.

`COc1ccc(-c2nc3ccc([N+](=O)[O-])cc3o2)cc1` [Example 584, 2-(4-Methoxyphenyl)-6-nitrobenzo[d]oxazole]: the activity at 10 µM fell in the range of 301 to 400%. With `O=[N+]([O-])c1ccc2oc(-c3ccc(F)cc3)nc2c1` [Example 525, 2-(4-fluorophenyl)-5-nitrobenzo[d]oxazole] the figure was under 200%.
